Tests used:
[1] = test system: obese diabetic Zucker rats; experiment: Fasting and 1 hr postprandial plasma glucose with camostat, diabetic rats; type: in vivo; conditions: fasting to 1 hr postprandial, 1% camostat in 30% glucose solution, without Camostat 270-±18 mg/dl
Method: (§1) Eight male obese Zucker rats of a strain that becomes diabetic by 10 wks of age and 8 matched lean Zucker rats as controls were studied. After overnight fast, rats 10 wks old were fed by gavage a 30% glucose solution ([…] body weight) containing 150 μCi of ^99m Tc-SC. Each rat was tested with and without 1% camostat, a trypsin inhibitor known to stimulate CCK release, in the glucose solution. Gastric emptying was monitored by gamma scintigraphy at 10 min intervals. Fasting and 1 hr postprandial plasma glucose were determined.

[2] = test system: obese diabetic Zucker rats; experiment: Gastric emptying by gamma scintigraphy with camostat, diabetic rats; type: in vivo; conditions: diabetic Zucker rats 10 wks old, 1% camostat in 30% glucose solution by gavage; without 38.4±18 min
Method: as §1

lean Zucker rats = experiment: Gastric emptying by gamma scintigraphy with camostat, lean rats; type: in vivo; conditions: lean Zucker rats 10 wks old, 1% camostat in 30% glucose solution by gavage; without 65.1±5.7 min
Method: as §1

[3] = test system: subjects with early NIDDM; experiment: Plasma GIP by radioimmunoassay with CCK-8 infusion; type: in vivo, human; conditions: iv CCK-8 infusion; without CCK-8 420.4 pg/ml; P=0.0032
Method: (§2) Blood samples were drawn from the indwelling 18 gauge angiocatheter in the antecubital fossa at 15 min intervals beginning just prior to ingestion of the glucose solution and ending at 120 min. Blood for glucose evaluation was collected in grey-top vacutainer tubes containing potassium oxalate and sodium fluoride. Blood for insulin and C-peptide was collected in red top tubes. Samples for hemoglobin A-1-C, gastric inhibitory polypeptide (GIP) and CCK were collected in lavender top tubes containing EDTA. All glass tubes were from Becton Dickinson Vacutainer Systems, Rutherford, N.J. Glucose analysis were performed on a Paramax instrument (Baxter Healthcare Corp., Irvine, Calif.). Hemoglobin A1C was performed by the micro column test (Bio-Rad, Hercules, Calif. 94547).
(§3) The C-peptide assay was performed by Smith Kline Bioscience Laboratories, Van Nuys, Calif. by radioimmunoassay (Diagnostic Products, Los Angeles, Calif. 90045). The assay for insulin was performed by Smith Kline Bioscience Laboratory, St. Louis, Mo. by radioimmunoassay (Pharmacia Diagnostics, Fairfield, N.J. 07004). Assays for GIP and CCK were performed by radioimmunoassay by the Gastroenterology Unit at Mayo Clinic (Rochester, Minn. 55905) using in-house kits.
(§4) The second study was performed 3 days later. […]

[4] = test system: subjects with early NIDDM; experiment: Gastric emptying study (gamma camera, 99mTc-SC glucose solution) with CCK-8 infusion; type: in vivo, human
Source text: Seven subjects with early NIDDM (diagnosed for less than 2 years) underwent two separate gastric emptying studies. Subjects were five men and two women ranging in age from 33 to 49 and previously diagnosed as diabetic according to current WHO criteria using a 75 g glucose tolerance test (OGTT) with blood sampled fasting and at 2 hr. All patients had been on oral hypoglycemic medication which was discontinued the evening prior to the study. All studies were begun between 7-8 am following a 12 hour fast.
An 18 gauge angiocatheter was placed in one antecubital fossa for blood drawing while another 18 gauge angiocatheter was placed in the other antecubital fossa for a 0.9% (normal saline) infusion ([…]). Gastric emptying studies utilizing a gamma camera (Scintronix USA, Inc., Woburn Mass.) were performed with a modified 0.62M (50 g glucose in 450 ml water) glucose solution. This solution has been used previously in gastric emptying studies (Schwartz, et al., 1990). […]
The subjects were then seated at a 90 degree angle in front of a gamma camera. […] Counts in the stomach region of interest were calculated in each 60 second image. After correcting for radioactive decay, the count rates were converted to a percentage of the maximum count rate recorded. […]

[5] = test system: subjects with early NIDDM; experiment: Serum insulin by radioimmunoassay with CCK-8 infusion; type: in vivo, human; conditions: iv CCK-8 infusion
Method: as §2, §3, §4

[6] = test system: subjects with early NIDDM; experiment: Plasma glucose after glucose solution with CCK-8 infusion; type: in vivo, human; conditions: iv CCK-8 infusion
Method: as §2
(§5) The second study was performed 3 days later. Subjects drank the glucose solution and a gastric emptying study was performed with simultaneous infusion of CCK (Kinevac™, Squibb Diagnostics Princeton, N.J. 08543) at 48 pM/kg/hr.
Infusions of the saline solution for the first test and the CCK solution for the second test were begun 10 min prior to ingestion of the glucose solution.

[7] = Plasma CCK by radioimmunoassay with CCK-8 infusion; type: in vivo, human; conditions: during iv CCK-8 infusion; without CCK-8 20.8 pmol/L; P=0.0247
Method: as §2, §3, §4

[8] = test system: subjects with early NIDDM; experiment: Adverse effects during CCK-8 infusion; type: in vivo, human; conditions: iv CCK-8 infusion, 2 hr
Method: as §5
None of the subjects reported any nausea or abdominal distress during the CCK-8 infusions.

**Q.** For `CN(C)C(=O)COC(=O)Cc1ccc(OC(=O)c2ccc(NC(=N)N)cc2)cc1` [Camostat], which “incremental increase in plasma glucose” value [1] is on record?
**A.** 160 ± 15 mg/dL

**Q.** What about the gastric half-emptying time [2] of the same compound?
**A.** 141 ± 33 min

**Q.** And the gastric half-emptying time (lean Zucker rats)?
**A.** 167 ± 25 min

**Q.** For `CSCC[C@H](NC(=O)[C@H](Cc1ccc(OS(=O)(=O)O)cc1)NC(=O)[C@@H](N)CC(=O)O)C(=O)NCC(=O)N[C@@H](Cc1c[nH]c2ccccc12)C(=O)N[C@@H](CCSC)C(=O)N[C@@H](CC(=O)O)C(=O)N[C@@H](Cc1ccccc1)C(N)=O` [CCK-8, Cholecystokinin-octapeptide], which “average GIP excursion over the 2 hr period” value [3] is on record?
**A.** 266.4 pg/mL

**Q.** What about the gastric half-emptying time ([4]; average, 7 early NIDDM subjects, iv CCK infusion 48 pM/kg/hr, 50 g glucose in 450 ml, without CCK-8 40.9 min, P=0.0042) of the same compound?
**A.** 94.2 min

**Q.** What about the “average area under the gastric emptying curve during the 2-hr period, relative to the same patients not receiving CCK-8” value ([4]; iv CCK-8 infusion, early NIDDM subjects, 2 hr) of the same compound?
**A.** 175%

**Q.** And the “average insulin concentration over the 2 hr period, relative to saline infusion” value ([5]; not statistically significant)?
**A.** 68%

**Q.** And the “average insulin concentration over the 2 hr period” value ([5]; without CCK-8 44.2 μU/ml, P=0.1480)?
**A.** 30.2 μU/ml

**Q.** And the “average glucose excursion value during the 2-hr period, relative to saline infusion” value ([6]; 2 hr)?
**A.** 66%

**Q.** What about the “average glucose excursion value during the 2-hr period” value ([6]; saline 5.6 mmol/liter, P=0.0550) of the same compound?
**A.** 3.7 mmol/L

**Q.** And the “average glucose concentration during the 2-hr period following the glucose meal” value ([6]; saline infusion 17.1, P=0.0073)?
**A.** 14.0 mmol/L

**Q.** What about the “average plasma CCK-8 excursion” value [7] of the same compound?
**A.** 49.6 pmol/L

**Q.** What about the “adverse effects (nausea, abdominal distress) during infusion” value [8] of the same compound?
**A.** No adverse effects were reported or observed

Source: patent publication US5468727A, “Methods of normalizing metabolic parameters in diabetics” (Board of Regents, The University of Texas System, priority 1993, dated 1995)
